Measurements taken from patent US8394783B2, “Polysaccharide gel formulation having multi-stage bioactive agent delivery” (Allergan, Inc., priority 2007, dated 2013).

Experiments:
Hyaluronidase [1] = assay: Enzymatic degradation study (Morgan-Elson colorimetric assay); assay type: biochemical; details: generally an order of magnitude less TA gives the same inhibition as CSA
Experimental: The HA filling gels prepared in Examples 1 and 2, were evaluated for resistance to enzymatic degradation using the Morgan-Elson colorimetric assay. This assay was applied to estimate the extend of enzymatic degradation by measuring changes in the molecular weight of the HA chains.
Hyaluronidase (0.1-10 mg) was added to each HA formulation, incubated for 10-250 mins at 37° C. followed by addition of 0.1 mL of a 0.8 M potassium tetraborate solution and heating at 100° C. for 10 min. The samples were supplemented with 3 mL of a 10% (wt) p-dimethylaminobenzaldehyde solution in acetic acid and incubated at 37° C. for 10-120 mins. The process was repeated for each HA formulation, omitting the enzyme addition, to prepare a control sample. The change in the optical density (OD) at 585 nm between the enzymatically degraded sample and the control sample was used to quantify the extent of degradation for each formulation.

Hyaluronidase [2] = assay: Enzymatic degradation study (SEC-MALS soluble HA assay); assay type: biochemical
Excerpt: The HA filling gels prepared in Examples 1 and 2, were further evaluated for resistance to enzymatic degradation by using a SEC-MALS (Size Exclusion Multi-Angle Light Scattering) based soluble HA assay. This assay was applied to quantify degradation by evaluating the soluble HA content in each sample (defined as the portion of the gel that can pass through a 0.2-1.0 μm filter). The difference in the soluble HA content, between an enzymatically degraded sample and a control sample was used to quantify the extent of degradation for each HA formulation.
The SEC-MALS tests were performed using an Agilent size exclusion chromatography system equipped with Wyatt light scattering and refractive index units. Hyaluronidase (0.1-10 mg) was added to each HA formulation, incubated for 10-250 mins at 37° C. followed by addition of 0.1 ml of a 0.8 M potassium tetraborate solution and heating at 100° C. for 10 mins. The samples were diluted in PBS, filtered through a 0.2-1.0 μm filter and injected into the SEC-MALS system. The process was repeated for each HA formulation, omitting the enzyme addition, to prepare a control sample. The soluble HA content of the enzymatically degraded sample, the control sample as well as the difference between the two is summarized in FIG. 3.

O=C(OC[C@H]1O[C@@H](OC(=O)c2cc(O)c(O)c(OC(=O)c3cc(O)c(O)c(O)c3)c2)[C@H](OC(=O)c2cc(O)c(O)c(OC(=O)c3cc(O)c(O)c(O)c3)c2)[C@@H](OC(=O)c2cc(O)c(O)c(OC(=O)c3cc(O)c(O)c(O)c3)c2)[C@@H]1OC(=O)c1cc(O)c(O)c(OC(=O)c2cc(O)c(O)c(O)c2)c1)c1cc(O)c(O)c(OC(=O)c2cc(O)c(O)c(O)c2)c1 [TA, tannic acid]
inhibitory activity of TA compared with CSA (Hyaluronidase [1]): higher inhibitory activity than CSA
inhibitory activity of TA compared with CSA (Hyaluronidase [2]): significantly higher than that of CSA
